From ChEMBL document CHEMBL3885861, “Open TG-GATES”

Species: Rattus norvegicus
Assay: Open TG-GATES - Regimen: Daily Repeat
Format: toxicity, organism-based, Sprague-Dawley
Design: regimen Daily Repeat, gender Male, age 6 weeks
Details: in vivo, po, route gavage; for APTT / Bas / Eos / Fbg / Hb / Ht / Lym / MCH / MCHC / MCV / Mono / Neu / PT / Plat / RBC / Ret / WBC: tissue Blood; for KIDNEY_L / KIDNEY_R / KIDNEY_TOTAL: tissue Kidney; for LIVER: tissue Liver; for A/G / ALP / ALT / AST / BUN / CRE / Ca / Cl / DBIL / GLC / IP / K / LDH / Na / PL / RALB / TBIL / TC / TG / TP / gamma-GTP: tissue Plasma
[1] = 150 mg/kg, 72 h, dose level Middle, time 3 day
[2] = 150 mg/kg, […], dose level Middle, time 7 day
[3] = 150 mg/kg, […], dose level Middle, time 14 day
[4] = 150 mg/kg, […], dose level Middle, time 28 day
[5] = 500 mg/kg, 72 h, dose level High, time 3 day
[6] = 500 mg/kg, […], dose level High, time 7 day
[7] = 500 mg/kg, […], dose level High, time 14 day
[8] = 500 mg/kg, […], dose level High, time 28 day

CN1C(=O)OC(C)(C)C1=O [TRIMETHADIONE]
TERMINAL_BW [1]: 237.3 g
APTT [1]: 16.6 s
Bas [1]: 0%
Eos [1]: 1.2%
Fbg [1]: 277.6 mg/dL
Hb [1]: 13.9 g/dL
Ht [1]: 41.2%
Lym [1]: 73.4%
MCH [1]: 22 pg
MCHC [1]: 33.7%
MCV [1]: 65.2 fL
Mono [1]: 2.8%
Neu [1]: 22.6%
PT [1]: 13 s
Plat [1]: 127.9 x10_4/uL
RBC [1]: 632 x10_4/ul
Ret [1]: 6.9%
WBC [1]: 82.5 x10_2/uL
KIDNEY_L [1]: 1 g
KIDNEY_R [1]: 0.9 g
KIDNEY_TOTAL [1]: 1.9 g
LIVER [1]: 11.2 g
A/G [1]: 0.8
ALP [1]: 1577 IU/L
ALT [1]: 42.4 IU/L
AST [1]: 78.2 IU/L
BUN [1]: 17.2 mg/dL
CRE [1]: 0.2 mg/dL
Ca [1]: 11.2 mg/dL
Cl [1]: 105 meq/L
DBIL [1]: 0.004 mg/dL
GLC [1]: 180.6 mg/dL
IP [1]: 6.9 mg/dL
K [1]: 4.4 meq/L
LDH [1]: 85.6 IU/L
Na [1]: 142.2 meq/L
PL [1]: 172.8 mg/dL
RALB [1]: 2.6 g/dL
TBIL [1]: 0.042 mg/dL
TC [1]: 91.4 mg/dL
TG [1]: 115.6 mg/dL
TP [1]: 5.7 g/dL
gamma-GTP [1]: 1 IU/L
TERMINAL_BW [2]: 275.1 g
TERMINAL_BW [3]: 335.8 g
TERMINAL_BW [4]: 410.9 g
APTT [2]: 22.2 s
Bas [2]: 0%
Eos [2]: 1%
Fbg [2]: 283.8 mg/dL
Hb [2]: 13.8 g/dL
Ht [2]: 40.4%
Lym [2]: 75%
MCH [2]: 21.5 pg
MCHC [2]: 34.1%
MCV [2]: 62.9 fL
Mono [2]: 2.6%
Neu [2]: 21.2%
PT [2]: 13.9 s
Plat [2]: 129.5 x10_4/uL
RBC [2]: 642.6 x10_4/ul
Ret [2]: 5.6%
WBC [2]: 92.5 x10_2/uL
APTT [3]: 25.9 s
Bas [3]: 0.2%
Eos [3]: 1%
Fbg [3]: 268.4 mg/dL
Hb [3]: 14.4 g/dL
Ht [3]: 41.6%
Lym [3]: 71.6%
MCH [3]: 20.8 pg
MCHC [3]: 34.6%
MCV [3]: 60.2 fL
Mono [3]: 2.2%
Neu [3]: 24.6%
PT [3]: 13.6 s
Plat [3]: 123.5 x10_4/uL
RBC [3]: 691.2 x10_4/ul
Ret [3]: 4.5%
WBC [3]: 132.8 x10_2/uL
APTT [4]: 21.9 s
Bas [4]: 0%
Eos [4]: 1.2%
Fbg [4]: 270.8 mg/dL
Hb [4]: 15.8 g/dL
Ht [4]: 45%
Lym [4]: 74.8%
MCH [4]: 19.6 pg
MCHC [4]: 35%
MCV [4]: 56.2 fL
Mono [4]: 2%
Neu [4]: 21.8%
PT [4]: 14.3 s
Plat [4]: 113.7 x10_4/uL
RBC [4]: 800.2 x10_4/ul
Ret [4]: 2%
WBC [4]: 103.2 x10_2/uL
KIDNEY_L [2]: 1.3 g
KIDNEY_R [2]: 1.2 g
KIDNEY_TOTAL [2]: 2.5 g
KIDNEY_L [3]: 1.4 g
KIDNEY_R [3]: 1.4 g
KIDNEY_TOTAL [3]: 2.8 g
KIDNEY_L [4]: 1.6 g
KIDNEY_R [4]: 1.7 g
KIDNEY_TOTAL [4]: 3.3 g
LIVER [2]: 13 g
LIVER [3]: 15.2 g
LIVER [4]: 16.5 g
A/G [2]: 0.9
ALP [2]: 1744.2 IU/L
ALT [2]: 51.6 IU/L
AST [2]: 85.6 IU/L
BUN [2]: 15.8 mg/dL
CRE [2]: 0.2 mg/dL
Ca [2]: 10.8 mg/dL
Cl [2]: 103.4 meq/L
DBIL [2]: 0.01 mg/dL
GLC [2]: 192.6 mg/dL
IP [2]: 6.9 mg/dL
K [2]: 4.2 meq/L
LDH [2]: 92.4 IU/L
Na [2]: 144.2 meq/L
PL [2]: 159.8 mg/dL
RALB [2]: 2.6 g/dL
TBIL [2]: 0.04 mg/dL
TC [2]: 74.2 mg/dL
TG [2]: 138.2 mg/dL
TP [2]: 5.7 g/dL
gamma-GTP [2]: 1.2 IU/L
A/G [3]: 0.8
ALP [3]: 1516.8 IU/L
ALT [3]: 46.8 IU/L
AST [3]: 73.2 IU/L
BUN [3]: 16.4 mg/dL
CRE [3]: 0.2 mg/dL
Ca [3]: 10.7 mg/dL
Cl [3]: 102.6 meq/L
DBIL [3]: 0.004 mg/dL
GLC [3]: 180.6 mg/dL
IP [3]: 6.6 mg/dL
K [3]: 4.2 meq/L
LDH [3]: 116.4 IU/L
Na [3]: 144.2 meq/L
PL [3]: 154.4 mg/dL
RALB [3]: 2.7 g/dL
TBIL [3]: 0.032 mg/dL
TC [3]: 73.2 mg/dL
TG [3]: 138.8 mg/dL
TP [3]: 6.2 g/dL
gamma-GTP [3]: 1 IU/L
A/G [4]: 0.8
ALP [4]: 1150.5 IU/L
ALT [4]: 37.8 IU/L
AST [4]: 77.5 IU/L
BUN [4]: 16 mg/dL
CRE [4]: 0.3 mg/dL
Ca [4]: 10.4 mg/dL
Cl [4]: 101.8 meq/L
DBIL [4]: 0.005 mg/dL
GLC [4]: 170.8 mg/dL
IP [4]: 5.5 mg/dL
K [4]: 4.1 meq/L
LDH [4]: 77.2 IU/L
Na [4]: 143 meq/L
PL [4]: 161 mg/dL
RALB [4]: 2.7 g/dL
TBIL [4]: 0.0325 mg/dL
TC [4]: 76.8 mg/dL
TG [4]: 146.8 mg/dL
TP [4]: 6.2 g/dL
gamma-GTP [4]: 1.2 IU/L
TERMINAL_BW [5]: 231.2 g
APTT [5]: 19.5 s
Bas [5]: 0.2%
Eos [5]: 0.6%
Fbg [5]: 280 mg/dL
Hb [5]: 13.7 g/dL
Ht [5]: 40.3%
Lym [5]: 80%
MCH [5]: 21.4 pg
MCHC [5]: 34%
MCV [5]: 63 fL
Mono [5]: 3.2%
Neu [5]: 15.6%
PT [5]: 13.3 s
Plat [5]: 127.8 x10_4/uL
RBC [5]: 640 x10_4/ul
Ret [5]: 5.1%
WBC [5]: 107.7 x10_2/uL
KIDNEY_L [5]: 1.1 g
KIDNEY_R [5]: 1 g
KIDNEY_TOTAL [5]: 2.1 g
LIVER [5]: 13.3 g
A/G [5]: 0.8
ALP [5]: 1686.2 IU/L
ALT [5]: 57.2 IU/L
AST [5]: 106.6 IU/L
BUN [5]: 16 mg/dL
CRE [5]: 0.2 mg/dL
Ca [5]: 11.2 mg/dL
Cl [5]: 99.4 meq/L
DBIL [5]: 0.006 mg/dL
GLC [5]: 169.4 mg/dL
IP [5]: 7.7 mg/dL
K [5]: 4.5 meq/L
LDH [5]: 114.8 IU/L
Na [5]: 143 meq/L
PL [5]: 160 mg/dL
RALB [5]: 2.7 g/dL
TBIL [5]: 0.04 mg/dL
TC [5]: 88.4 mg/dL
TG [5]: 70.6 mg/dL
TP [5]: 5.8 g/dL
gamma-GTP [5]: 1 IU/L
TERMINAL_BW [6]: 268.1 g
TERMINAL_BW [7]: 306.3 g
TERMINAL_BW [8]: 346.7 g
APTT [6]: 15.5 s
Bas [6]: 0.6%
Eos [6]: 0.8%
Fbg [6]: 272.6 mg/dL
Hb [6]: 13.4 g/dL
Ht [6]: 39%
Lym [6]: 70.4%
MCH [6]: 21.2 pg
MCHC [6]: 34.4%
MCV [6]: 61.8 fL
Mono [6]: 4.2%
Neu [6]: 24%
PT [6]: 14.8 s
Plat [6]: 109.8 x10_4/uL
RBC [6]: 630.8 x10_4/ul
Ret [6]: 4.4%
WBC [6]: 138.4 x10_2/uL
APTT [7]: 33.5 s
Bas [7]: 0.2%
Eos [7]: 0.4%
Fbg [7]: 282.6 mg/dL
Hb [7]: 14 g/dL
Ht [7]: 40.3%
Lym [7]: 77.2%
MCH [7]: 21.1 pg
MCHC [7]: 34.8%
MCV [7]: 60.7 fL
Mono [7]: 4.2%
Neu [7]: 17%
PT [7]: 14 s
Plat [7]: 116.4 x10_4/uL
RBC [7]: 664 x10_4/ul
Ret [7]: 4.5%
WBC [7]: 86.5 x10_2/uL
APTT [8]: 19.2 s
Bas [8]: 0.2%
Eos [8]: 0.8%
Fbg [8]: 288.6 mg/dL
Hb [8]: 15.4 g/dL
Ht [8]: 43.1%
Lym [8]: 68.2%
MCH [8]: 20.6 pg
MCHC [8]: 35.7%
MCV [8]: 57.9 fL
Mono [8]: 3.4%
Neu [8]: 27.2%
PT [8]: 14.5 s
Plat [8]: 103 x10_4/uL
RBC [8]: 744.8 x10_4/ul
Ret [8]: 2.3%
WBC [8]: 84.6 x10_2/uL
KIDNEY_L [6]: 1.2 g
KIDNEY_R [6]: 1.2 g
KIDNEY_TOTAL [6]: 2.4 g
KIDNEY_L [7]: 1.3 g
KIDNEY_R [7]: 1.3 g
KIDNEY_TOTAL [7]: 2.6 g
KIDNEY_L [8]: 1.5 g
KIDNEY_R [8]: 1.4 g
KIDNEY_TOTAL [8]: 2.9 g
LIVER [6]: 16.6 g
LIVER [7]: 17.4 g
LIVER [8]: 18.4 g
A/G [6]: 0.8
ALP [6]: 1535.2 IU/L
ALT [6]: 62.6 IU/L
AST [6]: 121 IU/L
BUN [6]: 16 mg/dL
CRE [6]: 0.2 mg/dL
Ca [6]: 10.9 mg/dL
Cl [6]: 97.2 meq/L
DBIL [6]: 0.016 mg/dL
GLC [6]: 179 mg/dL
IP [6]: 7.7 mg/dL
K [6]: 4 meq/L
LDH [6]: 81.4 IU/L
Na [6]: 146.2 meq/L
PL [6]: 166.2 mg/dL
RALB [6]: 2.8 g/dL
TBIL [6]: 0.042 mg/dL
TC [6]: 85 mg/dL
TG [6]: 96.8 mg/dL
TP [6]: 6.1 g/dL
gamma-GTP [6]: 1.6 IU/L
A/G [7]: 0.9
ALP [7]: 1426.4 IU/L
ALT [7]: 57 IU/L
AST [7]: 117.4 IU/L
BUN [7]: 16.8 mg/dL
CRE [7]: 0.2 mg/dL
Ca [7]: 10.7 mg/dL
Cl [7]: 100.6 meq/L
DBIL [7]: 0.01 mg/dL
GLC [7]: 181.6 mg/dL
IP [7]: 6.7 mg/dL
K [7]: 3.6 meq/L
LDH [7]: 127.6 IU/L
Na [7]: 146.2 meq/L
PL [7]: 169.6 mg/dL
RALB [7]: 3.1 g/dL
TBIL [7]: 0.034 mg/dL
TC [7]: 97.4 mg/dL
TG [7]: 59.2 mg/dL
TP [7]: 6.5 g/dL
gamma-GTP [7]: 1.6 IU/L
A/G [8]: 0.9
ALP [8]: 1105.4 IU/L
ALT [8]: 57.8 IU/L
AST [8]: 141.2 IU/L
BUN [8]: 15.6 mg/dL
CRE [8]: 0.3 mg/dL
Ca [8]: 10.4 mg/dL
Cl [8]: 97.8 meq/L
DBIL [8]: 0.006 mg/dL
GLC [8]: 176 mg/dL
IP [8]: 6.2 mg/dL
K [8]: 3.6 meq/L
LDH [8]: 83.2 IU/L
Na [8]: 145 meq/L
PL [8]: 155.2 mg/dL
RALB [8]: 3.1 g/dL
TBIL [8]: 0.032 mg/dL
TC [8]: 83.8 mg/dL
TG [8]: 122.8 mg/dL
TP [8]: 6.9 g/dL
gamma-GTP [8]: 1.4 IU/L
